These results are taken from patent publication US11400058B2, “Intravenous formulations of coenzyme Q10 (CoQ10) and methods of use thereof” (Berg LLC, priority 2010, dated 2022).

One data set has as its system MiaPACA2. As to the kind of experiment: MiaPACA2 pancreatic carcinoma cells injected in the pancreas of NSG mice, survival. The data set is classed as in vivo. The settings on record: doxorubicin group. The protocol: Effect of CoQ10 IV Formulation on Pancreatic Carcinoma Cell Line: MiaPACA2, a pancreatic cell line was employed on NSG mice. Mice were anesthetized in a sterile environment where they had been housed. Once animals reached surgical-plane anesthesia, mice were laid down, and the abdominal area was palpated. The pancreas was located behind the stomach, between the spleen, and the stomach, both of which are palpable organs. Thereafter, […] were injected in the pancreas by gently manipulating the animal to reach the area behind the stomach. All of these procedures were performed under sterile conditions in a biosafety cabinet, and the animals were housed under strict sterile conditions as well to avoid opportunistic infections. After injection of cells, animals were closely monitored daily. Animals were then randomized into 8 groups receiving a different dose of the CoQ10 N formulation. […] The formulation was administered intravenously via tail veins with dosing every other day three times per week for up to 28 days. The summary of results are depicted in the following graphs (FIGS. 49-56).

Data set [1] is described as follows: Combination therapy with doxorubicin, survival of rodents. Type of data set: in vivo. The settings on record: administered intraperitoneally, by itself, in rodents. The protocol:
Combination Therapy With CoQ10 IV Formulation and Chemotherapy Adjuvant Doxorubicin, a powerful chemotherapeutic, is lethal when administered intraperitoneally, by itself, in rodents. CoQ10 IV Formulation was administered in combination with doxorubicin.

In data set [2] the test system is liver clone of a malignant chloroma. As to the kind of experiment: Effect on liver cancer: liver clone of malignant chloroma in rats, alone and with cyclophosphamide. The data set is classed as in vivo, Fischer 344 rats. The settings on record: Group III, cyclophosphamide 35 mg/kg once. How it is done: Effect of CoQ10 IV Formulation on Liver Cancer: The ability of a Coenzyme Q10 formulation of the present invention to inhibit proliferation of liver tumor cells was examined in an animal model. Twenty-four Fischer 344 rats were injected intraperitoneally with the liver clone of a malignant chloroma Rats were then randomized into groups of 6 rats each. Group 1 served as a control, treated with 0.5 mL of phosphate buffered saline on Monday, Wednesday and Friday for three (3) weeks. Group II received a sterile nanodispersion by IP injection of 20 mg of Coenzyme Q10. […] The formulation was administered by IP injection in a volume of 0.5 mL on Monday, Wednesday and Friday for three (3) weeks. Group III received 35 mg/kg of cyclophosphamide once. Group IV received 20 mg of the 4:3:1.5 CoQ10 formulation in 0.5 mL on Monday, Wednesday and Friday for three (3) weeks. In addition, they received 35 mg/kg of cyclophosphamide once.

For data set [3], the system named is lung clone of a malignant chloroma. Nature of the data set: Effect on lung tumors: lung clone of malignant chloroma in rats, alone and with cyclophosphamide. The data set is classed as in vivo, Fischer 344 rats. The settings on record: Group III, cyclophosphamide 35 mg/kg IP once. How it is done: Twenty-four Fischer 344 rats were injected intraperitoneally with the lung clone of a malignant chloroma. The rats were then randomized into groups of 6 rats each. Group 1 served as a control, treated with 0.5 mL of phosphate buffered saline (PBS) on Monday, Wednesday and Friday for three (3) weeks. […] The formulation was administered by IP injection in a volume of 0.5 mL on Monday, Wednesday, and Friday for three (3) weeks. Group III received 35 mg/kg cyclophosphamide by IP injection once.

`COc1cccc2c1C(=O)c1c(O)c3c(c(O)c1C2=O)C[C@@](O)(C(=O)CO)C[C@@H]3O[C@H]1C[C@H](N)[C@H](O)[C@H](C)O1` [doxorubicin]: in the data set with MiaPACA2, the “survivors at 60 days” value is listed as 0 of 30. The lethality result in data set [1] was “lethal”.
`O=P1(N(CCCl)CCCl)NCCCO1` (stereo not drawn) [chemotherapy, cyclophosphamide]: in data set [2], the rats remained disease-free came to 1 rat and the “the other three rats survived up to day” value turned out to be 34 days. For the same compound, in data set [3], the “4 rats survived up to day” value stood at 35 days and the rats remained disease-free is 1 rat.
